Results taken from publication PMC5941067, “Novel Xanthomonas campestris Long-Chain-Specific 3-Oxoacyl-Acyl Carrier Protein Reductase Involved in Diffusible Signal Factor Synthesis” (mBio, 2018).

Tests used:
FabG1 (XCC1018) = molecular target: T1, FabG1 (XCC1018) (Xanthomonas campestris, UniProt Q8PBU9); assay: NADPH absorbance decrease at […] nm; assay type: biochemical; settings: hydride donor; 3-oxodecanoyl-ACP generated in situ by E. coli FabD and FabB from acyl-ACP and malonyl-CoA
T1 construct: gene fabG; full length, pET-28(b) construct (His tag), E. coli BL21(DE3)
T1 sequence (Q8PBU9 entry or part of it): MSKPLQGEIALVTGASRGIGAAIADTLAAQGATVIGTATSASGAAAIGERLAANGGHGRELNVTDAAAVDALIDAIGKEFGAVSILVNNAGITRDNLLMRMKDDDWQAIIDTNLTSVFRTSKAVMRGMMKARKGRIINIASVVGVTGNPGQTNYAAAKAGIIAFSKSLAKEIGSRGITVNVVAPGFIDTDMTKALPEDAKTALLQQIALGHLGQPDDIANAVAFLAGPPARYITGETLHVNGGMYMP

[1] = molecular target: T2, X. campestris pv. campestris FabH (Xanthomonas campestris, UniProt Q8PBV1); assay: coupled reaction, MALDI-TOF MS of acyl-ACP products; assay type: biochemical; settings: co-substrate malonyl-ACP; with FabG1 or FabG2 and E. coli FabA
T2 construct: purification and tag of this protein not described in the main text
T2 sequence (Q8PBV1 whole entry): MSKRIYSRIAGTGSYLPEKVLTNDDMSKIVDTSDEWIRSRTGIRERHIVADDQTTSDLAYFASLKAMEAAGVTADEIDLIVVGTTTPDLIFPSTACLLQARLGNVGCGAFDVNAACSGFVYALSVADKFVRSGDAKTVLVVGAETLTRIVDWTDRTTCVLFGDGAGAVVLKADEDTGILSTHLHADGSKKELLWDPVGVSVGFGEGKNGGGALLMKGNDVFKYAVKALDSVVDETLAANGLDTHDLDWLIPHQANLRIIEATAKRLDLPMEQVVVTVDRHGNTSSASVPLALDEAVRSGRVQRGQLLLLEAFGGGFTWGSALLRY

Compound	NADPH absorbance decrease at 340 nm (FabG1 (XCC1018))	coupled reaction, MALDI-TOF MS of acyl-ACP products [1]
NC(=O)C1=CN([C@@H]2O[C@H](COP(=O)(O)OP(=O)(O)OC[C@H]3O[C@@H](n4cnc5c(N)ncnc54)[C@H](OP(=O)(O)O)[C@@H]3O)[C@@H](O)[C@H]2O)C=CC1 [NADPH]	The maximal rate of NADPH reduction of 3-oxodecanoyl-ACP by FabG2	
CCCCCCCC(=O)SCCNC(=O)CCNC(=O)[C@H](O)C(C)(C)COP(=O)(O)OP(=O)(O)OC[C@H]1O[C@@H](n2cnc3c(N)ncnc32)[C@H](O)[C@@H]1OP(=O)(O)O [octanoyl-CoA]		X. campestris pv. campestris FabH, octanoyl-CoA, and malonyl-ACP replaced octanoyl-ACP
